Laboratory results taken from patent US20250222109A1, “STRUCTURED LIPID COMPOSITIONS” (Universität Bern, priority 2022, published 2025).
Where a name gives a salt, the structure may show the parent alone.

Key:
[1] = SAXS phase identification of MLO-water mesophases (TIF-Gel); format: physicochemical
Protocol: SAXS measurements were used to determine the phase identity and symmetry of the produced LMPs. Measurements were performed on a Bruker AXS Micro, with a microfocused X-ray source, operating at voltage and filament current of 50 kV and 1000 μA, respectively. The Cu Kα radiation (λCu Kα=1.5418 Å) was collimated by a 2D Kratky collimator, and the data were collected by a 2D Pilatus 100K detector. The scattering vector Q=(4π/λ) sin θ, with 2θ being the scattering angle, was calibrated using silver behenate. Data were collected and azimuthally averaged using the Saxsgui software to yield 1D intensity vs. scattering vector Q, with a Q range from 0.001 to 0.5 Å^−1. For all measurements the samples were placed inside a stainless-steel cell between two thin replaceable mica sheets and sealed by an O-ring, with a sample volume of 10 μL and a thickness of ˜1 mm. Measurements were performed at 25° C., 30° C., 34° C., 36° C. and 38° C. Samples were equilibrated for 10 min before measurements whereas scattered intensity was collected over 30 min and over 60 min in case of lamellar phase. On the other hand, for the kinetic study, the sample was pre equilibrated at 25° C. and inserted in the sample holder kept at 38° C. and the scattered intensity collected over 5 min. To determine the structural parameters such as the size of the water channels, SAXS data information on the lattice were combined with the composition of the samples (R. Mezzenga, et al., Shear rheology of lyotropic liquid crystals: a case study, Langmuir 21, 3322-3333 (2005)).
MLO was used as the lipid component of the mesophases and mixed with weighed amounts of drugs (10% w/w) in sealed Pyrex tubes and alternatively centrifuging (10 min, 5000 g) several times at room temperature until a homogenous mixture was obtained. The mesophase was then equilibrated for 48 h at room temperature in the dark (see, FIGS. 1A and 1B).
Firstly, small angle X-ray scattering (SAXS) measurements were used to determine the optimal amount of water needed to obtain a lamellar phase which provides a transition to a cubic at 38° C. (FIGS. 2B and 2C). The X-ray beam directed at the gel results in a scattering pattern with a set of maxima, that correspond to sharp Bragg reflections characteristic of the long-range positional order. The sequence of Bragg reflections (and their ratio; listed in FIG. 2A) identifies the symmetry of the mesophase studied (See also FIGS. 1A and 1B).

[2] = In vitro release of TOFA and TAC from TIF-Gel, vertical diffusion cells; format: physicochemical; details: HEPES pH 7.4, 37° C., 8 h
Text: In the in vitro release experiments, drug-loaded TIF-Gel formulations were placed in the donor chamber of a vertical diffusion cell (as depicted in FIG. 3G) and kept separated from the acceptor chamber by a polycarbonate membrane with pore diameter of 3 μm, which allows the passage of the free drugs only.

[3] = Drug encapsulation and distribution in TIF-Gel (WAXS, HPLC of gel layers); format: physicochemical
Protocol: The tube was centrifuged and kept at rest for 24 hours. Subsequently, the gel was divided into 3 different layers (Top, Middle, and Bottom), and the drug content evaluated in each by HPLC.
WAXS measurements were performed on a Bruker AXS Micro, with a microfocused X-ray source, operating at voltage and filament current of 50 kV and 1000 μA, respectively. The Cu Kα radiation (λCu Kα=1.5418 Å) was collimated by a 2D Kratky collimator, and the data were collected by a 2D Pilatus 100K detector. The scattering vector Q=(4π/λ) sin θ, with 2θ being the scattering angle, was calibrated using silver behenate. Data were collected and azimuthally averaged using the Saxsgui software to yield 1D intensity vs. scattering vector Q, with a Q range from 13 to 18 nm-1. For all measurements the samples were placed inside a stainless-steel cell between two thin replaceable mica sheets and sealed by an O-ring, with a sample volume of 10 μL and a thickness of ˜1 mm.
The TAC loaded mesophase composition comprised: a) a carrier comprising: a1) water in an amount of 16% by weight of the carrier; and a2) MLO in an amount of 84% by weight of the carrier; and b) TAC in an amount of 1% by weight of the composition.

[4] = tested on: dextran sulfate sodium (DSS)-induced acute colitis; assay: Chemically induced colitis based on application of DSS; format: in vivo, mice
Text: Female 6-8 week-old C57B/6J Mice (ex. Charles River Germany) were maintained under specific and opportunistic pathogen-free (SOPF) microbiota conditions at the animal facility of the University of Bern. Mice were ear marked, randomly assigned to different cages and treatment groups, and bedding mixed between all cages to avoid potential cage effects on microbiota. All methods used were approved by the Bernese animal welfare authority (permission no. BE 20/18). […] The next day, mouse drinking water was supplemented with 2% w/v dextran sodium sulfate (DSS; MP Biomedicals, 160110). Every other day, the different compounds were applied intra-rectally until the end of the experiment. During the experiment, the mice were constantly monitored and the weight and disease scores were recorded when appropriate. Disease score was determined by grading of 1-4 of the following criteria (with grade 4 corresponding to most unhealthy/abnormal): posture, mobility, fur appearance, weight, stool consistency, and stool colour (L. F. Mager, et al., The ESRP1-GPR137 axis contributes to intestinal pathogenesis, Elife 6 (2017), doi: 10.7554/eLife.28366.). […]
The gating strategy was adapted from the inventors previously published work (S. E. Liyanage, et al., Flow cytometric analysis of inflammatory and resident myeloid populations in mouse ocular inflammatory models, Exp. Eye Res. 151, 160-170 (2016)). […] Splenocytes were quantified using a CASY cell counter (Omni Life Sciences) and the following populations were quantified following single cell and live/dead selection (Thermofischer, L34961). […] Stained cells were analysed on a BD Bioscience LSR II SORP flow cytometer.
DSS is toxic to epithelial cells and its application compromises the integrity of the intestinal barrier, thereby leading to activation of submucosal immune cells by intestinal microbes. Through experimentation, it was determined that bi-daily application of the gel yielded robust mitigation of local and systemic inflammation.

[5] = Stability study of TAC and TOFA-loaded TIF-Gel (HPLC); format: physicochemical; details: 4° C. and 25° C., one-month period
Protocol: The TAC and TOFA-loaded TIF-Gels were prepared according to Example 1. […] The TAC-loaded TIF-Gel composition comprised a) a carrier comprising: a1) water in an amount of 16% by weight of the carrier; and a2) MLO in an amount of 84% by weight of the carrier; and b) TAC in an amount of 1% by weight of the composition. […] At specific time points, an aliquot of the formulation was analysed at the HPLC, and the content of the drug was recorded. Data are expressed as relative percentage referred to day 0.

[6] = SAXS phase identification of MLO-water mesophases (TIF-Gel); format: physicochemical; details: 5 mg of TOFA and 1 mg of TAC in 100 mg of gel
[7] = rectal, every other day, vs empty TIF-Gel

Row | Compound | phase identity (SAXS) ([1]; 12% of water, 25° C. and 38° C.) | phase identity (SAXS) ([1]; 14% of water, 25° C.) | phase identity (SAXS) ([1]; 14% of water, 38° C.) | phase identity (SAXS) ([1]; 16% w/w of water and 84% w/w of MLO, 25° C.) | phase identity (SAXS) ([1]; 16% w/w of water and 84% w/w of MLO, 38° C.) | temperature of the L→Q transition ([1]; 18% w/w of water) [°C] | phase transition in the presence of lipase ([1]; lipase 1000 U/mL) | time of conversion of precursor L phase into the cubic phase ([1]; once applied into the rectum) [min] | effect of drug on phase identity and transition temperature of the gel ([1]; 10% w/w of drug, lamellar at room temperature, cubic (Ia3d) at 38° C.) | drug release from the gel vs free drug, in vitro [2] | distribution of drug in the gel matrix ([3]; Top, Middle and Bottom gel layers, HPLC) | drug crystallisation in the gel (WAXS) ([3]; embedded in the 3D gel structure) | encapsulation efficacy ([3]; encapsulated in the TIF-Gel) [%] | local pro-inflammatory cytokine levels ([4]; colon tissue) | disease score / disease severity [4, 7] | weight loss [4, 7] | long-term stability of drug loaded into TIF-gel (drug content by HPLC) [5] | effect of drug entrapment on phase identity and thermal behaviour of the carrier gel [6]
1 | CCCCC/C=C\C/C=C\CCCCCCCC(=O)OCC(O)CO (stereo not drawn) [MLO, 2,3-dihydroxypropyl(9Z,12Z)-9,12-octadecadienoate] | L phase | lamellar structure | coexistence of L and Q structure (with a Ia3d geometry) | lamellar structure | Q structure (with a Ia3d geometry) | 30 | Q→Hexagonal phase (H) | < 5 |  |  |  |  |  |  |  |  |  | 
2 | C[C@@H]1CCN(C(=O)CC#N)C[C@@H]1N(C)c1ncnc2[nH]ccc12 [TOFA, Tofacitinib citrate] |  |  |  |  |  |  |  |  | did not affect the phase identity and the transition temperature | decreased the release rate | homogeneously distributed | do not form crystals | 100 | reduced | did not improve the disease score | improving weight loss | stable | did not affect the phase identity and thermal behaviour
